Measured values taken from patent US9546158B2, “2,5-substituted pyrimidines” (Grünenthal GmbH, priority 2014, dated 2017).

Target: T1, human PDE4B1 (Homo sapiens, UniProt Q07343)
T1 construct: host or cells: Sf9 cells
Assay: cAMP HTRF assay to determine the activity of hPDE4B1
Assay type: biochemical
Conditions: test substrate concentration of 1 μM, read-out: Inhibition of PDE4B, Inhibition in %
Method: cAMP HTRF® Assay to Determine the Activity of hPDE4B1
The inhibiting effect of the compounds on the enzyme activity of human PDE4B1 was measured by the quantification of 5′-adenosine monophosphate (5′-AMP), which is formed from 3′,5′-cyclic adenosine monophosphate (cAMP). Human recombinant enzyme, expressed in Sf9 cells, and the HTRF (homogeneous time-resolved fluorescence) detection method were used in the assay.
The test compound or water (control) was mixed with the human recombinant PDE4B1 enzyme (4.8 U) in a buffer consisting of 44.4 mM tris-HCl, 5.28 mM MgCl2, 2.64 mM DTT and 0.044% Tween 20 (pH 7.8). After adding the cAMP enzyme substrate (final concentration 40 nM), the mixture was incubated for 30 minutes at room temperature. Then a fluorescence acceptor (Dye2 marked with cAMP), a fluorescence donor (anti-cAMP antibody marked with a europium cryptate) and the non-specific phosphodiesterase inhibitor IBMX (3-isobutyl-1-methylxanthine; final concentration 1 mM) were added. After 60 minutes the fluorescence transfer, which correlates with the amount of remaining cAMP, was measured with a microplate reader (Rubystar, BMG) at λex=337 nm, λem=620 nm and λem=665 nm. The enzyme activity was calculated from the quotient formed from the measured signal at 665 nm and that at 620 nm. The result was expressed as the percentage inhibition of enzyme activity of the control (without PDE4 inhibitor). The enzyme was omitted for measurement of the basal control. IC50 values (IC50=concentration causing a half-maximal inhibition of control specific activity) were derived from dose response measurements with eight different concentrations (n=2; N=1-3).
Literature: N. Saldou et al., Comparison of recombinant human PDE4 isoforms: interaction with substrate and inhibitors, Cell. Signal. Vol. 10, No. 6, 427-440, 1998

T1 sequence (Q07343 whole entry): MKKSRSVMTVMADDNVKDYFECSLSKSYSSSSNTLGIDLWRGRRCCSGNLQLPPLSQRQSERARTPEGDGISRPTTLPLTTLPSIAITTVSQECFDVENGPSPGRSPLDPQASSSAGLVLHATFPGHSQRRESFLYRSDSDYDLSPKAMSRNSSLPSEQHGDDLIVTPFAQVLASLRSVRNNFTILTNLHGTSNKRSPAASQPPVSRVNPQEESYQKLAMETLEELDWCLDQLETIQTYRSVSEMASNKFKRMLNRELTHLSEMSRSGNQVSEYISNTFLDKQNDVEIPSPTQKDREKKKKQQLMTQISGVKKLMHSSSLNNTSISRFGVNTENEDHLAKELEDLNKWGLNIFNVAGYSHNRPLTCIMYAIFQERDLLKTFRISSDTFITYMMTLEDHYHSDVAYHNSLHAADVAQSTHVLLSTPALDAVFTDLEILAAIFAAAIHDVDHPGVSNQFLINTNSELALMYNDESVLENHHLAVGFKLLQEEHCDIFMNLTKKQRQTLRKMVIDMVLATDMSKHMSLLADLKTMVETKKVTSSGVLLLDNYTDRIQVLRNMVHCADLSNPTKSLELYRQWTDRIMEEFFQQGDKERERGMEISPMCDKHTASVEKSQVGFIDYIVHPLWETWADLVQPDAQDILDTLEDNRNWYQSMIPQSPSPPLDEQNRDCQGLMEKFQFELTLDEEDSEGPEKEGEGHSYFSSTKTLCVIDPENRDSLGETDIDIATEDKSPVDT

| inhibition at 1 µM | SMILES |
| --- | --- |
| 99% | O=C1CN(C(=O)c2ccc3c(C4CC4)nn(-c4ncc(-c5ccccc5F)cn4)c3c2)CCN1 [Compound No. 16, 4-(3-Cyclopropyl-1-(5-(2-fluorophenyl)pyrimidin-2-yl)-1H-indazole-6-carbonyl)piperazin-2-one] |
| 92% | O=C(c1ccc2c(C3CC3)nn(-c3ncc(-c4ccccc4)cn3)c2c1)N1CCOCC1 [Compound No. 14, (3-Cyclopropyl-1-(5-phenylpyrimidin-2-yl)-1H-indazol-6-yl)(morpholino)-methanone] |
| 102% | CC(C)(O)c1nn(-c2ncc(-c3ccccc3F)cn2)c2cc(C(=O)N3CCOCC3)ccc12 [Compound No. 31] |
| 73% | O=C(c1cc2c(cn1)c(C1CC1)nn2-c1ncc(-c2ccccc2F)cn1)N1CCOCC1 [Compound No. 29, (3-Cyclopropyl-1-(5-(2-fluorophenyl)pyrimidin-2-yl)-1H-pyrazolo[4,3-c]pyridin-6-yl)(morpholino)methanone] |
| 96% | O=C1CN(C(=O)c2ccc3c(C4CC4)nn(-c4ncc(-c5ccccc5)cn4)c3c2)CCN1 [Compound No. 15, 4-(3-Cyclopropyl-1-(5-phenylpyrimidin-2-yl)-1H-indazole-6-carbonyl)piperazin-2-one] |
| 86% | CS(=O)(=O)c1nn(-c2ncc(-c3cc(C#N)ccc3F)cn2)c2cc(C(=O)N3CCOCC3)ccc12 [Compound No. 28, 4-Fluoro-3-(2-(3-(methylsulfonyl)-6-(morpholine-4-carbonyl)-1H-indazol-1-yl)pyrimidin-5-yl)benzonitrile] |
| 100% | COc1ccc(F)c(-c2cnc(-n3nc([S+](C)[O-])c4ccc(C(=O)N5CCOCC5)cc43)nc2)c1 (stereo not drawn) [Compound No. 24, (1-(5-(2-Fluoro-5-methoxyphenyl)pyrimidin-2-yl)-3-(methylsulfinyl)-1H-indazol-6-yl)(morpholino)methanone] |
| 44% | COCCCNC(=O)c1cc2c(cn1)c(C1CC1)nn2-c1ncc(-c2ccccc2F)cn1 [compound 43, 3-Cyclopropyl-1-(5-(2-fluorophenyl)pyrimidin-2-yl)-N-(3-methoxypropyl)-1H-pyrazolo[4,3-c]pyridine-6-carboxamide] |
| 96% | Cc1cccc(-c2cnc(-n3nc(C(C)O)c4ccc(C(=O)N5CCOCC5)cc43)nc2)c1 (stereo not drawn) [Compound No. 18, (3-(1-Hydroxyethyl)-1-(5-(m-tolyl)pyrimidin-2-yl)-1H-indazol-6-yl)(morpholino)-methanone] |
| 31% | O=C(NCC1(O)CCC1)c1cc2c(cn1)c(C1CC1)nn2-c1ncc(-c2ccccc2F)cn1 [compound 46, 3-Cyclopropyl-1-(5-(2-fluorophenyl)pyrimidin-2-yl)-N-((1-hydroxycyclobutyl)methyl)-1H-pyrazolo[4,3-c]pyridine-6-carboxamide] |
| 83% | NC(=O)c1nn(-c2ncc(-c3ccccc3F)cn2)c2cc(C(=O)N3CCOCC3)ccc12 [Compound No. 3, 1-(5-(2-Fluorophenyl)pyrimidin-2-yl)-6-(morpholine-4-carbonyl)-1H-indazole-3-carboxamide] |
| 102% | CC(O)c1nn(-c2ncc(-c3ccccc3F)cn2)c2cc(C(=O)N3CCOCC3)ccc12 (stereo not drawn) [Compound No. 20, (1-(5-(2-Fluorophenyl)pyrimidin-2-yl)-3-(1-hydroxyethyl)-1H-indazol-6-yl)(morpholino)methanone] |

Test system: not given
Assay: not given
Conditions: not given

| melting point | SMILES |
| --- | --- |
| 252 to 255 °C | O=C1CN(C(=O)c2ccc3c(C4CC4)nn(-c4ncc(-c5ccccc5F)cn4)c3c2)CCN1 [Compound No. 16, 4-(3-Cyclopropyl-1-(5-(2-fluorophenyl)pyrimidin-2-yl)-1H-indazole-6-carbonyl)piperazin-2-one] |
| 218 to 222 °C | O=C(c1ccc2c(C3CC3)nn(-c3ncc(-c4ccccc4)cn3)c2c1)N1CCOCC1 [Compound No. 14, (3-Cyclopropyl-1-(5-phenylpyrimidin-2-yl)-1H-indazol-6-yl)(morpholino)-methanone] |
| 235 to 237 °C | CC(C)(O)c1nn(-c2ncc(-c3ccccc3F)cn2)c2cc(C(=O)N3CCOCC3)ccc12 [Compound No. 31] |
| 232 to 235 °C | O=C(c1cc2c(cn1)c(C1CC1)nn2-c1ncc(-c2ccccc2F)cn1)N1CCOCC1 [Compound No. 29, (3-Cyclopropyl-1-(5-(2-fluorophenyl)pyrimidin-2-yl)-1H-pyrazolo[4,3-c]pyridin-6-yl)(morpholino)methanone] |
| 175 to 179 °C | O=C1CN(C(=O)c2ccc3c(C4CC4)nn(-c4ncc(-c5ccccc5)cn4)c3c2)CCN1 [Compound No. 15, 4-(3-Cyclopropyl-1-(5-phenylpyrimidin-2-yl)-1H-indazole-6-carbonyl)piperazin-2-one] |

Target: T1, human PDE4B1
Assay: TR-FRET assay using the LANCE Ultra cAMP kit to determine the activity of hPDE4B1
Assay type: biochemical
Conditions: test substrate concentration of 10 μM, read-out: Inhibition of PDE4B, Inhibition in %
Source text: TR-FRET Assay Using the LANCE® Ultra cAMP Kit to Determine the Activity of hPDE4B1
The effects of the compounds on the activity of the human PDE4B1 was quantified by measuring the production of 5′AMP from cAMP using a human recombinant enzyme expressed in Sf9 cells and the LANCE® Ultra cAMP kit, a TR-FRET detection method from PerkinElmer. The human PDE4B1 enzyme was purchased from SignalChem Lifesciences (Catalog #P92-31BG, Lot #H296-2).
The test compound, reference compound or water (control) was mixed with the enzyme (0.96 U) in a reaction buffer containing 50 mM Tris-HCl, 50 mM MgCl2 and 5 mM DTT (pH 8.5). Thereafter, the reaction was initiated by addition of 500 nM cAMP (substrate) and the mixture was incubated for 30 minutes at room temperature. For control basal measurements, the enzyme was omitted from the reaction mixture. After 30 minutes, the reaction was stopped and diluted by a factor of 100 with the reaction buffer supplemented with 500 μM IBMX. The fluorescence donor (europium chelate-labeled cAMP) and the fluorescence acceptor (anti-cAMP antibody labeled with the ULight™ dye) were then added together with 500 μM IBMX to a 10 μl aliquot. After 60 minutes, the fluorescence transfer corresponding to the amount of residual cAMP was measured at λex=337 nm, λem=620 nm and λem=665 nm using a microplate reader (PHERAstar, BMG). The enzyme activity was determined by dividing the signal measured at 665 nm by that measured at 620 nm (ratio) multiplied by 10000. The results were expressed as percent inhibition of the control enzyme activity. IC50 values (IC50=concentration causing a half-maximal inhibition of control specific activity) were derived from dose response measurements with ten different concentrations (n=3; N=1-3).

| inhibition at 10 µM | SMILES |
| --- | --- |
| 108% | COc1ccnc(-c2cnc(-n3nc(C(C)O)c4ccc(C(=O)N5CCOCC5)cc43)nc2)c1 (stereo not drawn) [Compound No. 71, (3-(1-Hydroxyethyl)-1-(5-(4-methoxypyridin-2-yl)pyrimidin-2-yl)-1H-indazol-6-yl)(morpholino)methanone] |
| 100% | Cc1ccc(F)c(-c2cnc(-n3nc([S+](C)[O-])c4ccc(C(=O)N5CCOCC5)cc43)nc2)c1 (single isomer, unassigned) [Compound No. 65, (1-(5-(2-Fluoro-5-methylphenyl)pyrimidin-2-yl)-3-(methylsulfinyl)-1H-indazol-6-yl)(morpholino)methanone] |
| 106% | CCc1ccc(F)c(-c2cnc(-n3nc(C(C)O)c4ccc(C(=O)N(C)CC(N)=O)cc43)nc2)c1 (stereo not drawn) [Compound No. 68, N-(2-Amino-2-oxoethyl)-1-(5-(5-ethyl-2-fluorophenyl)pyrimidin-2-yl)-3-(1-hydroxyethyl)-N-methyl-1H-indazole-6-carboxamide] |
| 102% | CC(O)c1nn(-c2ncc(-c3cccc(C4CC4)c3)cn2)c2cc(C(=O)N3CCOCC3)ccc12 (stereo not drawn) [Compound No. 76, (1-(5-(3-Cyclopropylphenyl)pyrimidin-2-yl)-3-(1-hydroxyethyl)-1H-indazol-6-yl)(morpholino)methanone] |
| 105% | Cc1ccc(F)c(-c2cnc(-n3nc(C(C)O)c4ccc(C(=O)N(C)CCO)cc43)nc2)c1 (stereo not drawn) [Compound No. 66, 1-(5-(2-Fluoro-5-methylphenyl)pyrimidin-2-yl)-3-(1-hydroxyethyl)-N-(2-hydroxyethyl)-N-methyl-1H-indazole-6-carboxamide] |
| 77% | CCc1ccc(F)c(-c2cnc(-n3nc(C(C)O)c4ccc(C(=O)N5CCOCC5)cc43)nc2)c1 (stereo not drawn) [Compound No. 69, (1-(5-(5-Ethyl-2-fluorophenyl)pyrimidin-2-yl)-3-(1-hydroxyethyl)-1H-indazol-6-yl)(morpholino)methanone] |
| 102% | CCOc1ccc(F)c(-c2cnc(-n3nc(C(C)O)c4ccc(C(=O)N5CCOCC5)cc43)nc2)c1 (stereo not drawn) [Compound No. 74, (1-(5-(5-Ethoxy-2-fluorophenyl)pyrimidin-2-yl)-3-(1-hydroxyethyl)-1H-indazol-6-yl)(morpholino)methanone] |
| 90% | Cc1ccc(F)c(-c2cnc(-n3nc(C(C)O)c4ccc(C(=O)N(C)CC(N)=O)cc43)nc2)c1 (stereo not drawn) [Compound No. 67, N-(2-Amino-2-oxoethyl)-1-(5-(2-fluoro-5-methylphenyl)pyrimidin-2-yl)-3-(1-hydroxyethyl)-N-methyl-1H-indazole-6-carboxamide] |
| 105% | Cc1ccnc(-c2cnc(-n3nc(C(C)O)c4ccc(C(=O)N5CCOCC5)cc43)nc2)c1 (stereo not drawn) [Compound No. 70] |
| 96% | Cc1ccc(F)c(-c2cnc(-n3nc([S+](C)[O-])c4ccc(C(=O)N5CCOCC5)cc43)nc2)c1 (stereo not drawn) [Compound No. 32, (1-(5-(2-Fluoro-5-methylphenyl)pyrimidin-2-yl)-3-(methylsulfinyl)-1H-indazol-6-yl)(morpholino)methanone] |
| 102% | Cc1ccc(F)c(-c2cnc(-n3nc(S(C)(=O)=O)c4ccc(C(=O)N5CCOCC5)cc43)nc2)c1 [Compound No. 33, (1-(5-(2-Fluoro-5-methylphenyl)pyrimidin-2-yl)-3-(methylsulfonyl)-1H-indazol-6-yl)(morpholino)methanone] |
| 105% | CC(O)c1nn(-c2ncc(-c3cc(C4CC4)ccn3)cn2)c2cc(C(=O)N3CCOCC3)ccc12 (stereo not drawn) [Compound No. 73, (1-(5-(4-Cyclopropylpyridin-2-yl)pyrimidin-2-yl)-3-(1-hydroxyethyl)-1H-indazol-6-yl)(morpholino)methanone] |
| 107% | Cc1ccc(F)c(-c2cnc(-n3nc(C(C)O)c4ccc(C(=O)N5CCOCC5)cc43)nc2)c1 (stereo not drawn) [Compound No. 34, (1-(5-(2-Fluoro-5-methylphenyl)pyrimidin-2-yl)-3-(1-hydroxyethyl)-1H-indazol-6-yl)(morpholino)methanone] |
